# Results published in PubChem BioAssay (NCI).
# “And” between values parts separate entries of the source, which are not always exact repeats. Equal values may be shown once.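 Each compound was tested at five concentrations against cells in 96-well plates for 48 hours. At the GI50, growth is halved. Definition used: TGI = concentration required for complete inhibition of growth.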
# Experiments:
# Test in all cases: NCI tumour cell line growth inhibition, 48 h
# ACHN renal = test system: ACHN renal
# MALME-3M melanoma = test system: MALME-3M melanoma
# NCI-H226 lung = test system: NCI-H226 lung
# COLO 205 colon = test system: COLO 205 colon
# UO-31 renal = test system: UO-31 renal
# OVCAR-3 ovarian = test system: OVCAR-3 ovarian
# 786-0 renal = test system: 786-0 renal
# SF-539 CNS = test system: SF-539 CNS
SMILES,GI50 (ACHN renal),TGI (ACHN renal),GI50 (MALME-3M melanoma),TGI (MALME-3M melanoma),GI50 (NCI-H226 lung),TGI (NCI-H226 lung),GI50 (COLO 205 colon),TGI (COLO 205 colon),GI50 (UO-31 renal),TGI (UO-31 renal),GI50 (OVCAR-3 ovarian),TGI (OVCAR-3 ovarian),GI50 (786-0 renal),TGI (786-0 renal),GI50 (SF-539 CNS),TGI (SF-539 CNS)
O=C1C(Cl)=C(Nc2ccccn2)C(=O)c2ccccc21,3 µM,9.93 µM,1.81 µM,3.65 µM,1.92 µM,5.49 µM,3.23 µM,11.4 µM,2.27 µM,7.2 µM,1.86 µM,3.98 µM,13.1 µM,26.3 µM,2.07 µM,4.75 µM
Cc1csc(-c2ccc3c(c2)COC3(CCCN(C)C)c2ccc(F)cc2)c1 (stereo not drawn),1.74 µM,3.14 µM,1.74 µM,3.34 µM,1.92 µM,3.76 µM,2.59 µM,5.64 µM,1.46 µM,2.79 µM,1.81 µM,3.37 µM,1.8 µM,3.39 µM,1.8 µM,3.22 µM
O=C(Nc1ccc(O)c(NS(=O)(=O)c2ccc(F)cc2)c1)c1ccc(-c2ccccc2)cc1,6.3 µM,25.7 µM,11.5 µM,23.9 µM,4.96 µM,23.8 µM,15.6 µM,31.2 µM,3.35 µM,> 100 µM,4.72 µM,22.1 µM,7.87 µM,22.7 µM,8.93 µM,22.4 µM
O=[N+]([O-])c1ccc(NN=C2c3ccccc3Cc3ccccc32)c([N+](=O)[O-])c1,–,> 100 µM,–,> 100 µM,–,> 100 µM,–,> 100 µM,–,> 100 µM,–,5.19 µM,–,> 100 µM,–,> 100 µM
COc1cccc2cc(-c3nc(C4CCC(C(=O)O)CC4)n4ncnc(N)c34)[nH]c12 (stereo not drawn),0.42 µM and 1.03 µM,15.5 µM and > 10 µM,0.0296 µM and 0.0752 µM,0.354 µM and 0.675 µM,0.347 µM and 0.397 µM,> 7.79 µM,1.07 µM and 0.542 µM,13.5 µM and > 8.26 µM,0.129 µM and 0.21 µM,2.13 µM and 3.35 µM,0.253 µM and 0.394 µM,4.27 µM and > 7.87 µM,0.344 µM and 0.488 µM,6.57 µM and 5.44 µM,0.309 µM and 0.516 µM,2.71 µM and 4.09 µM
Cc1ccc(C)c(N2C(=O)C(=O)c3c(C)ccc(C)c32)c1,–,33.4 µM,–,96.5 µM,–,> 100 µM,–,> 100 µM,–,55.3 µM,–,34.1 µM,–,> 100 µM,–,36.4 µM
COc1ccc2c(c1)c(-c1nc(-c3cn(C)c4ncccc34)cs1)cn2CCCCN1CCOCC1,1.59 µM,2.99 µM,1.65 µM,3.41 µM,2.53 µM,8.81 µM,1.69 µM,3.56 µM,1.2 µM,2.56 µM,1.62 µM,3.38 µM,1.57 µM,3.44 µM,1.56 µM,3.02 µM
COc1cc(C(=O)Nc2cc(O)c(C/C=C(\C)CCC=C(C)C)c(O)c2)cc2c1O[C@]1(C)CC[C@@H](O)C(C)(C)[C@H]1C2,1.22 µM,13.1 µM,0.3 µM and 1.24 µM,7.46 µM,3.47 µM,29 µM,0.386 µM and 0.678 µM,4.25 µM and 5.32 µM,0.0786 µM and 0.237 µM,0.6 µM and 1.29 µM,3.17 µM and 1.76 µM,6.12 µM,0.00947 µM and 0.0168 µM,6.07 µM,0.00623 µM,0.411 µM and 0.658 µM
O=C(OC(CNc1c(C(=O)c2ccccc2)c(=O)n(Cc2ccccc2)c(=O)n1Cc1ccccc1)CN1CCCCC1)c1ccccc1 (stereo not drawn),30.1 µM,> 100 µM,18.5 µM,40.7 µM,67.2 µM,> 100 µM,19.6 µM,47.8 µM,16.7 µM,36 µM,18 µM,35.2 µM,14.9 µM,29.4 µM,21.7 µM,42.2 µM
Nc1nc(Cl)nc2c1ncn2C1CCC(COP(=O)(O)OP(=O)(O)OP(=O)(O)O)O1 (stereo not drawn),–,> 100 µM,–,> 100 µM,–,> 100 µM,–,41.7 µM,–,48.2 µM,–,> 100 µM,–,> 100 µM,–,> 100 µM
CCc1cccc(CC)c1NC(=O)c1ccn2c1CCc1cnc(Nc3ccc(N4CCN(C)CC4)cc3OC)nc1-2,2.31 µM,12.4 µM,1.87 µM,3.8 µM,14.7 µM,45.2 µM,0.0231 µM,2.36 µM,1.55 µM,7.74 µM,1.55 µM,4.22 µM,1.66 µM,3.84 µM,1.1 µM,3.19 µM
CCNC(=O)c1ccc2c(c1)nc(-c1ccc(Cl)cc1)n2-c1cc(C(C)(C)C)[nH]n1,3.48 µM,13.2 µM,3.47 µM,17.2 µM,2.56 µM,9.24 µM,3.5 µM,14.4 µM,3.46 µM,44.5 µM,2.49 µM,7.77 µM,3.48 µM,47.4 µM,3 µM,11 µM
